Biological target: human M3 muscarinic acetylcholine receptor (hM3) (Homo sapiens, UniProt P20309)
Assay: inhibition of [3H]NMS binding, intact CHO cells
Assay type: cell-based

Chain of human M3 muscarinic acetylcholine receptor (hM3) (P20309 whole entry): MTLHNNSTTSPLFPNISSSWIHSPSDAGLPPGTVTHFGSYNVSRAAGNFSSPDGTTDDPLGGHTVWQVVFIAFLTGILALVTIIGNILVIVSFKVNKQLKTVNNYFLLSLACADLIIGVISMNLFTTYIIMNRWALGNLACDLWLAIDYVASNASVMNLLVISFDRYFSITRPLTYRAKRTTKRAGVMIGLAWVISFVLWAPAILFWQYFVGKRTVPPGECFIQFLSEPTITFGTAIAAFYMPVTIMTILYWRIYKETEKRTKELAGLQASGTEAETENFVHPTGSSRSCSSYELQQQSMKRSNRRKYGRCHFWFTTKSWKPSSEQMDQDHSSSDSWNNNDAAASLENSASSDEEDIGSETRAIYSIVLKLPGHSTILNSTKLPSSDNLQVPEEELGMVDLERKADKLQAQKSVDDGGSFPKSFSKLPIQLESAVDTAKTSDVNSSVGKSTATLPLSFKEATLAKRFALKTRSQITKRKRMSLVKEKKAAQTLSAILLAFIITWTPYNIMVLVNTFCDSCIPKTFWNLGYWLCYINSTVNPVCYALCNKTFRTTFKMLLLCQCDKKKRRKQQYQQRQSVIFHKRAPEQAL

CCCCCCOc1nsnc1C1=CCCN(C)C1 [Xanomeline]
IC50: 79.4 nM

From publication PMC3752336 (Neurochemical research, 2008)
